From US5510340A, “Antihypercholesterolemic compounds and related pharmaceutical compositions and methods of use” (SRI International, priority 1992, dated 1996) come the findings set out here.

Assay [1] deals with Cholesterol Biosynthesis in CHO Cells. Put plainly: In Vitro Assay for Inhibition of Cholesterol Biosynthesis in CHO Cells. The format is cell-based, Chinese Hamster. The note with it: Cricetulus griseus, 14C-acetate incorporation into cholesterol, 16-18 h incubation with compound. As for the experimental part: Chinese Hamster ovary (CHO) cells were seeded at 1×10^5 cells per 60-mm Petri dish and incubated at 37° C. in F-12 medium supplemented with fetal calf serum (5%). After 24 h, the medium was aspirated and replaced with delipidated calf serum in F-12 medium containing the test compounds. At various concentrations, either ethanol or dimethyl sulfoxide was used to dissolve the test compounds to a final concentration of 0.1% in the cell medium. Controls contained the vehicle alone. After incubation for 16-18 h, ^14 C-acetate (20 μM final concentration) was added and incubation continued for 5.5 h. […] The cells were then scraped off the plates with a rubber policeman into saline (2 mL). An aliquot for protein was taken, and the remainder of the cell suspension was centrifuged at 800×g for 10 min. The supernatant was discarded and the pellet extracted by vortexing 15 s in chloroform:methanol (2 mL of 2:1). […] NaCl (0.4 mL) was added, vortexed, and centrifuged, and the top layer was discarded. A portion of the upper phase mixture of chloroform:methanol:water (0.4 mL of 3:48:47) was added and gently swirled to avoid mixing with the bottom layer. The resultant samples were centrifuged, and the top layer was discarded. The procedure was repeated before methanol was finally added to combine the two layers and the solvent was evaporated. Chloroform (200 μL) was added to the residue and an aliquot (150 μL) taken. To the aliquot was added cholesterol (40 μg in 20 μL), and the samples were concentrated. The lipids were dissolved in chloroform (50 μL) and spotted on silica gel G thin-layer chromatography plates. After development in hexane:ether:acetic acid (80:20:1), the ^14 C-cholesterol spot was located with iodine vapor and scraped into a scintillation vial, and the radioactivity was counted with a scintillation counter.

In assay [2] the test system is Cholesterol Levels in Plasma of Rats. Put plainly: Assay for Lowering Cholesterol Levels in Rats with Oral Administration of Test Compound 15. The class given is in vivo, Male Sprague-Dawley rats. Conditions: rat plasma, gavage, mean ± S.E. As for the experimental part:
Male Sprague-Dawley rats weighing 120 to 150 g were used. The animals were placed on a cholesterol-free diet immediately upon arrival and housed in a room with a reverse light cycle. One week after they had adapted to the light cycle, the experiment was begun by gavaging the animals three times daily with various amounts of test compound 13 suspended in 1.0 mL of saline. The control group received 1.0 mL of saline alone. On the seventh day of the experiment, sodium 1-^14 C! acetate (20 μCi/rat) was injected intraperitoneally 30 min after the oral administration (gavage) of test compounds and 2 h before the mid-dark point in the diurnal cycle; 4 h after the ^14 C-acetate injection, the animals were killed and blood samples were collected after decapitation. Plasma was obtained by centrifuging blood in an EDTA-treated centrifuge tube at 3000 rpm for 10 min. Cholesterol synthesis was measured by determining the level of ^14 C-labeled nonsaponifiable lipid present in 1.0 mL of plasma; 1.0 mL of plasma was first mixed with 1.0 mL of saline, followed by 5.0 mL of 10% KOH in absolute ethanol. Samples were saponified at 75° C. for 1 h. After cooling, 44,000 dpm, 0.5 nmol of 1,2-^3 H! cholesterol was added to each sample as an internal standard for calculating recovery through the extraction procedure. Samples were extracted once with 5 mL of petroleum ether, and the organic phase was backwashed with 5 mL of saline. The extracts were dried on a nitrogen evaporator, and the residue was reconstituted into 0.5 mL of CHCl3 -MeOH (2:1). The 0.5-mL reconstituted samples were transferred into counting vials containing 2 mL of ethanol, and both ^3 H and ^14 C were counted in 10 mL of scintillation fluid. The ^3 H-cholesterol internal standard recovery value from each sample was used to correct each sample to 100% recovery of ^14 C-cholesterol. The total cholesterol level and HDL in each plasma sample was also measured. The comparison between test groups and the control group was evaluated for both cholesterol levels and ^14 C-acetate incorporation.
(c.) Assay for Lowering Cholesterol Levels in Rats with Oral Administration of Test Compound 15:
The experiment was carried out as described in (b.). However, in this experiment, blood was drawn on days 0, 3 and 7. Total cholesterol levels and HDL were measured on these blood samples.

Where only a bound is given, the exact number is not on record here.

As to `C[C@H](CCCC(C)(C)O)[C@H]1CC[C@H]2[C@@H]3CC=C4C[C@@H](O)CC[C@]4(C)[C@H]3CC[C@]12C`, the IC50 (commonly the midpoint of a concentration-inhibition curve) in assay [1] came to 350 nM.

For `CC(C)CCC[C@@H](C)[C@H]1CC(=O)C2=C3[C@H](O)C[C@H]4C[C@@H](O)CC[C@]4(C)[C@H]3CC[C@@]21C`, in assay [1], the concentration for half-maximal inhibition (IC50) is 1600 nM.

As to `CC(C)CCC[C@@H](C)[C@H]1C[C@H]2C3=C4[C@@H](C[C@H]5C[C@@H](O)CC[C@]5(C)[C@H]4CC[C@@]31C)n1c(=O)c3ccccc3c(=O)n12`, in assay [1], the IC50 is 2100 nM.

Consider `CCOC(=O)N1[C@@H]2C[C@H]3C[C@@H](O)CC[C@]3(C)[C@H]3CC[C@@]4(C)C(=C23)[C@H](C[C@@H]4[C@H](C)CCCC(C)C)N1C(=O)OCC`, for which, in assay [1], the half-inhibitory concentration (IC50) came to 800 nM.

With `CCOC(=O)N1[C@@H]2C[C@H]3C[C@@H](OC(=O)c4ccccc4)CC[C@]3(C)[C@H]3CC[C@@]4(C)C(=C23)[C@H](C[C@@H]4[C@H](C)CCCC(C)C)N1C(=O)OCC`, the IC50 in assay [1] is 1300 nM.

In the case of `CC(C)CCC[C@@H](C)[C@H]1C[C@H]2C3=C4[C@@H](C[C@H]5C[C@@H](O)CC[C@]5(C)[C@H]4CC[C@@]31C)N(C)N2C`, in assay [1], the IC50 turned out to be 1600 nM.

For `C[C@H](CCCC(C)(C)O)[C@H]1Cc2nnc3c4c2[C@]1(C)CC[C@@H]4[C@@]1(C)CC[C@H](O)C[C@@H]1C3`, the IC50 in assay [1] turned out to be 3400 nM.

Regarding `C[C@H](CCCC(C)(C)F)[C@H]1Cc2nnc3c4c2[C@]1(C)CC[C@@H]4[C@@]1(C)CC[C@H](O)C[C@@H]1C3`, in assay [1], the IC50 worked out at 160 nM.

Consider `CC(C)[C@@H](C)/C=C/[C@@H](C)[C@H]1Cc2nnc3c4c2[C@]1(C)CC[C@@H]4[C@@]1(C)CC[C@H](O)C[C@@H]1C3`, for which the concentration for half-maximal inhibition (IC50) in assay [1] amounted to 110 nM.

In the case of `CC(C)CCC[C@@H](C)[C@H]1C[C@H](O)C2=C3C(=O)C[C@H]4C[C@@H](O)CC[C@]4(C)[C@H]3CC[C@@]21C`, the IC50 in assay [1] was found to be 1100 nM.

Turning to `CC(C)CCC[C@@H](C)[C@H]1C[C@H](O)C2=C3C(=O)C[C@H]4C[C@@H](OC(=O)c5ccccc5)CC[C@]4(C)[C@H]3CC[C@@]21C`, the 50% inhibitory concentration (IC50) in assay [1] is 3500 nM.

Regarding `CO[C@@H]1C[C@H]([C@H](C)CCCC(C)C)[C@@]2(C)CC[C@H]3C(=C12)CC[C@H]1C[C@@H](O)CC[C@@]13C`, in assay [1], the IC50 was 900 nM.

`CC(C)CCC[C@@H](C)[C@H]1CC(=O)C2=C3[C@H](F)C[C@H]4C[C@@H](OC(=O)c5ccccc5)CC[C@]4(C)[C@H]3CC[C@@]21C`: the IC50 in assay [1] is 200 nM.

Take `CC(C)CCC[C@@H](C)[C@H]1Cc2n[n+]([O-])c3c4c2[C@]1(C)CC[C@@H]4[C@@]1(C)CC[C@H](O)C[C@@H]1C3`: the IC50 in assay [1] is below 250 nM.

For `CC(C)CCC[C@@H](C)[C@H]1Cc2cnc3c4c2[C@]1(C)CC[C@@H]4[C@@]1(C)CC[C@H](O)C[C@@H]1C3` [Compound 15, pyridino 2',3',4',5':7,8,14,15!cholestan-3β-ol], the “Cholesterol Levels, HDL” value in assay [2] (Day 0, 0.16 mg/rat/day, control 42.2 ± 4.40) stood at 39.6 ± 2.06 Mg/100 mL; in assay [2] (Day 0, 0.33 mg/rat/day, control 42.2 ± 4.40), 35.8 ± 1.91 Mg/100 mL; in assay [2] (Day 0, 1.0 mg/rat/day, control 42.2 ± 4.40), 37.8 ± 3.01 Mg/100 mL; in assay [2] (Day 0, 3.0 mg/rat/day, control 42.2 ± 4.40), 35.2 ± 3.14 Mg/100 mL; in assay [2] (Day 3, 0.16 mg/rat/day, control 41.6 ± 2.62), 36.4 ± 1.36 Mg/100 mL; in assay [2] (Day 3, 0.33 mg/rat/day, control 41.6 ± 2.62) it was 35.8 ± 2.40 Mg/100 mL. The “Cholesterol Levels, HDL” value is given as 34.4 ± 1.69 Mg/100 mL in assay [2] (Day 3, 1.0 mg/rat/day, control 41.6 ± 2.62); 29.6 ± 0.98 Mg/100 mL in assay [2] (Day 3, 3.0 mg/rat/day, control 41.6 ± 2.62); 39.8 ± 1.02 Mg/100 mL in assay [2] (Day 7, 0.16 mg/rat/day, control 49.6 ± 4.01); 36.0 ± 2.55 Mg/100 mL in assay [2] (Day 7, 0.33 mg/rat/day, control 49.6 ± 4.01); 25.0 ± 1.87 Mg/100 mL in assay [2] (Day 7, 1.0 mg/rat/day, control 49.6 ± 4.01); 15.4 ± 1.40 Mg/100 mL in assay [2] (Day 7, 3.0 mg/rat/day, control 49.6 ± 4.01). The “Cholesterol Levels, Total” value in assay [2] (Day 0, 0.16 mg/rat/day, control 95.8 ± 9.79) is 94.8 ± 5.5 Mg/100 mL; in assay [2] (Day 0, 0.33 mg/rat/day, control 95.8 ± 9.79), 99.0 ± 3.7 Mg/100 mL; in assay [2] (Day 0, 1.0 mg/rat/day, control 95.8 ± 9.79) it was 88.8 ± 7.78 Mg/100 mL; in assay [2] (Day 0, 3.0 mg/rat/day, control 95.8 ± 9.79) it was 85.6 ± 6.57 Mg/100 mL; in assay [2] (Day 3, 0.16 mg/rat/day, control 85.2 ± 2.95), 83.6 ± 3.56 Mg/100 mL; in assay [2] (Day 3, 0.33 mg/rat/day, control 85.2 ± 2.95) it was 75.6 ± 1.94 Mg/100 mL. In addition, the “Cholesterol Levels, Total” value in assay [2] (Day 3, 1.0 mg/rat/day, control 85.2 ± 2.95) is 78.8 ± 2.86 Mg/100 mL; in assay [2] (Day 3, 3.0 mg/rat/day, control 85.2 ± 2.95) it was 72.2 ± 2.95 Mg/100 mL; in assay [2] (Day 7, 0.16 mg/rat/day, control 84.8 ± 4.40), 69.4 ± 3.66 Mg/100 mL; in assay [2] (Day 7, 0.33 mg/rat/day, control 84.8 ± 4.40), 57.6 ± 2.89 Mg/100 mL; in assay [2] (Day 7, 1.0 mg/rat/day, control 84.8 ± 4.40), 58.0 ± 4.06 Mg/100 mL; in assay [2] (Day 7, 3.0 mg/rat/day, control 84.8 ± 4.40) it was 46.4 ± 2.23 Mg/100 mL.

In the case of `CC(C)CCC[C@@H](C)[C@H]1CC(=O)C2=C3CC[C@H]4C[C@@H](O)CC[C@]4(C)[C@H]3CC[C@@]21C` [drawing 26], in assay [1], the IC50 is 1400 nM.

As to `CC(C)CCC[C@@H](C)[C@H]1Cc2nnc3c4c2[C@]1(C)CC[C@@H]4[C@@]1(C)CC[C@H](O)C[C@@H]1C3` [drawing 35], the IC50 in assay [1] is 90 nM.

Take `CC(C)CCC[C@@H](C)[C@H]1Cc2cnc3c4c2[C@]1(C)CC[C@@H]4[C@@]1(C)CC[C@H](O)C[C@@H]1C3` [drawing 39]: in assay [1], the IC50 was determined as 50 nM.
